# According to PMC11475369, “Exploring the Potential of Synthetic Cannabinoids: Modulation of Biological Activity of Normal and Cancerous Human Colon Epithelial Cells” (Cells, 2024):
# Where “and” joins values, the source holds several entries; their conditions need not be identical. Equal values may be shown once.
# Assays:
# HT29 cells [1] = assay: Neutral Red (NR) uptake assay, viability of HT29 cells; type: cell-based; conditions: Homo sapiens, HT-29; HT29 colon tumor cells, 24 h incubation
# Method: The HT29 cell line (ATCC no. HTB-38) (human colon adenocarcinoma) was used in the present study. Cells were cultivated in RPMI 1640 culture medium with 10% fetal calf serum (FCS) (GibcoTM, Paisley, UK), supplemented with antibiotics (100 U/mL penicillin and 100 μg/mL streptomycin) (Sigma, St. Louis, MO, USA). The cell culture was performed in standard conditions, i.e., at 37 °C in a humidified atmosphere with 5% CO2. The CCD 841 CoTr cell line (ATCC no. CRL-1807) (human normal colon epithelium) was cultivated in RPMI 1640 +DMEM (1:1) medium (Sigma, St. Louis, MO, USA) with 10% FCS and the addition of antibiotics. The culture was carried out at 34 °C in a 5% CO2/95% air atmosphere.
# After seeding (1 × 10^5 cells/mL) in a 96-well plate, the cells were incubated for 24 h. Thereafter, the tested compounds (100 μL) at a concentration range of 0–200 μg/mL in the culture medium were added to the wells (100 μL). The incubation lasted for 24 h. After that time, the culture medium was removed and a 0.4% Neutral Red solution in the culture medium was added to each well. The incubation was continued for another 3 h. After the incubation, the medium with the NR dye was discarded, and 4% paraformaldehyde in 1% CaCl2 was added for cell fixation (200 μL) and incubated for 3 min. Intracellular dye deposits were solubilized using 1% […] in a 50% ethanol solution (100 μL). The plates were then gently shaken (20 min.) at room temperature to dissolve and release the dye from the cells. Finally, spectrophotometric measurement was performed at 540 nm using an EL800 Universal Microplate Reader (BioTek Instruments, Winooski, VT, USA).
# [2] = Flow cytometry annexin V-FITC/PI, cell death types in CCD 841 CoTr cells; type: cell-based, human; conditions: human, CCD 841 CoTr cells (normal cells), read-out: Percentage of viable cells
# Method: (§1) In a further flow cytometric study measuring normal and tumor cell death types, the cells were exposed to the cannabinoids at a concentration of 25 μg/mL for 24 h.
# (§2) The annexin V-fluorescein isothiocyanate (FITC)/propidium iodide (PI) apoptosis kit (BD Biosciences, BD Pharmingen™, San Jose, CA, USA) was used for the quantitative analysis of cannabinoid-induced cell death.
# (§3) For the analyses, both adhered (after detaching the cells with 10 mM EDTA in PBS w/o Ca^2+ and Mg^2+ ions solution) and floating cells were collected after 24 h of incubation with the tested cannabinoids. After collection, the cells were gently centrifuged (1000 rpm/5 min.). Next, the supernatant was discarded, and the cell pellet was suspended in warm PBS w/o Ca^2+ and Mg^2+ ions and incubated for 5 min. at room temperature. The centrifugation procedure was repeated again and, following the manufacturer’s procedure, the cells were suspended in 100 μL of 1X Annexin V Binding Buffer with 5 μL of FITC Annexin V […] and 5 μL of propidium iodide (PI) (5 mM). The preparation was gently vortexed and incubated at room temperature for 15 min. in the dark. After that time, the cells were subjected to cytometric analysis. Before dosing the cells into the cytometer, 400 μL of 1X Binding Buffer was added. The cells were analyzed using a flow cytometer (BD FACSCalibur) with CellQuest Pro Version 6.0 software within 1 h after the staining was completed.
# CCD 841 CoTr cells = assay: as above; type: cell-based, human; conditions: 25 μg/mL, 24 h
# Method: as §1, §2, §3
# HT29 cells [3] = assay: Flow cytometry (PI) cell cycle analysis of HT29 cells; type: cell-based, human; conditions: HT29, 25 μg/mL, 24 h
# Method: In the flow cytometric study, we assessed the impact of the cannabinoids at a concentration of 25 μg/mL on the distribution of cell cycle phases in the normal and cancer cells after 24 h incubation. Both adhered, and non-adsorbed (floating) cells were used to perform the analyses. They were collected after 24 h of incubation with the tested cannabinoids and centrifuged (3000 rpm/5 min.). Next, the cell pellet was rinsed and suspended in PBS w/o Ca^2+ and Mg^2+ ions and centrifuged again (3000 rpm/5 min.). The cell pellet was suspended and fixed in 70% ethanol (1 mL). Untreated cells served as a control. The cells were stored at −20 °C for 1 week. After that time, in accordance with the manufacturer protocol, the cells were subjected to the PI staining procedure (PI/RNase Staining Buffer, BD PharmingenTM, BD Biosciences, San Jose, CA, USA). Briefly, 1 mL of PBS w/o Ca^2+ and Mg^2+ ions was added to 1 mL of ethanol and incubated with gentle stirring for 5 min. at room temperature. Next, the cells were centrifuged (3000 rpm/5 min.) and suspended in PBS w/o Ca^2+ and Mg^2+ ions with gentle stirring for 5 min. at room temperature. The cells were centrifuged once again (3000 rpm/5 min.) and the cell pellet was suspended in 500 μL of PI/RNase Staining Buffer. The incubation was carried out for 15 min. at room temperature. Finally, the intensity of the PI fluorescence was measured using FACS Calibur (BD Pharmingen^TM). The obtained data were analyzed using Cell Quest Pro Version 6.0. for the Macintosh operating system (BD Pharmingen^TM). The percentage of cells in the appropriate phases of the cycle was calculated based on all analyzed gated cells. A total of 10,000 events were measured per sample.
# [4] = DPPH free radical scavenging test
# Method: The DPPH biochemical test is used to determine the antioxidant potential of tested compounds. This method is based on the ability of compounds to reduce the stable dark purple 2,2-diphenyl-1-picrylhydrazyl radical (DPPH) to yellow diphenyl-picrylhydrazine. The following concentrations of the tested cannabinoids were prepared: 25, 100, and 200 μg/mL in pure ethanol. Next, the DPPH solution (0.2 mg/mL in ethanol) was prepared. As a quantitative standard, Trolox in increasing concentrations (1–50 μg/mL) was prepared in ethanol. The procedure was carried out as follows: 100 µL of the specified concentrations of the tested cannabinoids or standard points were added to the wells of a 96-well plate in eight replicates. Next, 100 μL of a DPPH solution was added to 100 μL of each sample or standard in a 96-well plate. Subsequently, 20 min. incubation at room temperature was carried out, and spectrophotometric reading was performed at 515 nm using an EL800 Universal Microplate Reader (BioTek Instruments, Winooski, VT, USA). Decreasing absorbance meant increasing antioxidant activity of the preparations. The final value of the free radical scavenging activity of the cannabinoids was calculated based on the standard curve and the following formula:DPPH scavenging effect (%) = [(Xcontrol − Xcompound/Xcontrol) × 100]
# Xcontrol is the absorbance of the control, and Xcompound is the absorbance in the presence of cannabinoids
# [5] = cannabinoid concentration 25 μg/mL
# [6] = cannabinoid concentration 100 μg/mL
# [7] = cannabinoid concentration 200 μg/mL
smiles,measurement,setting,value
"CCCCCc1cc(O)c2c(c1)OC(C)(CCC=C(C)C)C=C2 (stereo not drawn) [CBC, cannabichromene]",IC50,HT29 cells [1],60.6 µg/mL
same,"viability at 24 h, 25 μg/mL",[2],91.4 ± 1.19%
same,Percentage of cells in early apoptosis,CCD 841 CoTr cells,2.51 ± 0.54%
same,Percentage of cells in late apoptosis,CCD 841 CoTr cells,5.58 ± 1.02%
same,Percentage of cells in necrosis,CCD 841 CoTr cells,0.54 ± 0.39%
same,Reduction in the number of viable normal cells compared to the control,CCD 841 CoTr cells,did not significantly affect
same,Increase in the number of cells in the sub-G1 phase compared to the control,HT29 cells [3],1.19%
same,Percentage of cells in G1 phase,HT29 cells [3],50.90 ± 0.73%
same,Percentage of cells in G2 phase,HT29 cells [3],26.23 ± 0.39 %
same,Percentage of cells in S phase,HT29 cells [3],16.71 ± 0.37%
same,Percentage of cells in sub-G1 phase,HT29 cells [3],2.52 ± 0.10 %
same,Reduction in the number of cells in the G2 phase compared to the control,HT29 cells [3],3.24%
same,Reduction Value Corresponding to the Trolox Concentration (DPPH),[4]; [5],0 µg/mL
same,Reduction Value Corresponding to the Trolox Concentration (DPPH),[4]; [6],0 µg/mL
same,Reduction Value Corresponding to the Trolox Concentration (DPPH),[4]; [7],0.487 ± 0.341 µg/mL
same,Activity in reducing the free oxygen radical DPPH (in words),[4]; lower concentrations (<100 μg/mL),did not express any activity
"CCCCCc1cc2c3c(c1)OC(C)(C)C1CCC(C)(CC31)O2 (stereo not drawn) [CBT, cannabicitran]",IC50,HT29 cells [1],53.9 µg/mL
same,"viability at 24 h, 25 μg/mL",[2],87.3 ± 2.11%
same,"Cells in late apoptosis, more than in the control",CCD 841 CoTr cells,3.12%
same,Percentage of cells in early apoptosis,CCD 841 CoTr cells,2.90 ± 0.74%
same,Percentage of cells in late apoptosis,CCD 841 CoTr cells,8.72 ± 1.91 %
same,Percentage of cells in necrosis,CCD 841 CoTr cells,1.08 ± 0.56 %
same,Reduction in the number of viable normal cells compared to the control,CCD 841 CoTr cells,5.02%
same,Effect on cell cycle transitions (in words),HT29 cells [3],limited the transition of cells from the S phase to the G2 phase
same,Increase in the number of cells in the sub-G1 phase compared to the control,HT29 cells [3],17.93%
same,Percentage of cells in G1 phase,HT29 cells [3],41.86 ± 0.64 %
same,Percentage of cells in G2 phase,HT29 cells [3],17.90 ± 0.81 %
same,Percentage of cells in S phase,HT29 cells [3],18.64 ± 0.81 %
same,Percentage of cells in sub-G1 phase,HT29 cells [3],19.26 ± 0.67 %
same,Reduction Value Corresponding to the Trolox Concentration (DPPH),[4]; [5],0.280 µg/mL and 0.280 ± 0.190 µg/mL
same,Reduction Value Corresponding to the Trolox Concentration (DPPH),[4]; [6],0.487 ± 0.104 µg/mL
same,Reduction Value Corresponding to the Trolox Concentration (DPPH),[4]; [7],0.593 µg/mL and 0.593 ± 0.278 µg/mL
"CCCCCc1cc(O)cc(O)c1C/C=C(\C)CCC=C(C)C [abn-CBG, abnormal cannabigerol]",IC50,HT29 cells [1],13.7 µg/mL
same,"viability at 24 h, 25 μg/mL",[2],25.5 ± 1.2%
same,"Cells in necrosis, more than in the control",CCD 841 CoTr cells,47.27%
same,"Early and late apoptosis together, dying cells compared to the control",CCD 841 CoTr cells,19.52%
same,Percentage of cells in early apoptosis,CCD 841 CoTr cells,8.57 ± 1.67 %
same,Percentage of cells in late apoptosis,CCD 841 CoTr cells,18.36 ± 3.62 %
same,Percentage of cells in necrosis,CCD 841 CoTr cells,47.55 ± 4.12 %
same,Reduction in the number of viable normal cells compared to the control,CCD 841 CoTr cells,66.79%
same,Increase in the number of cells in the sub-G1 phase compared to the control,HT29 cells [3],80.59%
same,Percentage of cells in G1 phase,HT29 cells [3],7.97 ± 0.35 %
same,Percentage of cells in G2 phase,HT29 cells [3],3.62 ± 0.54 %
same,Percentage of cells in S phase,HT29 cells [3],5.09 ± 0.50 %
same,Percentage of cells in sub-G1 phase,HT29 cells [3],81.92 ± 1.80 %
same,Reduction Value Corresponding to the Trolox Concentration (DPPH),[4]; [5],0.074 ± 0.056 µg/mL
same,Reduction Value Corresponding to the Trolox Concentration (DPPH),[4]; [6],0.216 ± 0.133 µg/mL
same,Reduction Value Corresponding to the Trolox Concentration (DPPH),[4]; [7],0.264 ± 0.198 µg/mL
